Assay results as given in US9273057B2 (Bristol-Myers Squibb Company, priority 2012, dated 2016).

Biological target: CK2A1 (CK2α/β) (Homo sapiens, UniProt P68400)
Assay: CK2 kinase assay, CK2A1 (CK2α/β)
Format: biochemical
Settings: Table A; read-out: CK2A1 (CK2α/β) (IC50)

CK2A1 (CK2α/β), sequence (P68400 whole entry, species assumed): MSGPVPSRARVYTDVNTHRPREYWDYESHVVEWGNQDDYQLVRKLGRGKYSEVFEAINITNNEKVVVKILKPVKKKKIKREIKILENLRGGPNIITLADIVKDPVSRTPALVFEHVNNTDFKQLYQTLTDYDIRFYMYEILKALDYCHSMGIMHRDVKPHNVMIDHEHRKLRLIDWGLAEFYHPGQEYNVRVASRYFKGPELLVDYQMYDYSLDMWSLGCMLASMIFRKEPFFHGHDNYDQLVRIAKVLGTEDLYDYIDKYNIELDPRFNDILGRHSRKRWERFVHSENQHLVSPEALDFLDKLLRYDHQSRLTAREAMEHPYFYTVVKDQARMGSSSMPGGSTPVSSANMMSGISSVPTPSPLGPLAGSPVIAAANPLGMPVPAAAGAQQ
CK2A1 (CK2α/β), sequence (P67870 whole entry partner, species assumed): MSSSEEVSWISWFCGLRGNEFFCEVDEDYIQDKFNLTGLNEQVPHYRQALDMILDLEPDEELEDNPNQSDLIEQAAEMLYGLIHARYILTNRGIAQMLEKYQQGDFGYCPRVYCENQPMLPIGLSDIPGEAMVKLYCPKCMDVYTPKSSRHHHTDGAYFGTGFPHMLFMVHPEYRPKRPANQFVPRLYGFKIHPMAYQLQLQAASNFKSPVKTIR

Row | IC50 [nM] | SMILES
1 | 1.56 | CN1CCC(F)(c2cc(C#N)cc(Nc3nc(NC4CC4)c4ncc(C#N)n4n3)c2Cl)CC1 [Example 661, 2-((2-chloro-5-cyano-3-(4-fluoro-1-methylpiperidin-4-yl)phenyl)amino)-4-(cyclopropylamino)imidazo[2,1-f][1,2,4]triazine-7-carbonitrile]
2 | 2.56 | N#Cc1cnc2c(NC3CC3)nc(Nc3cc(C(F)F)cc(N4CCC(C(CO)CO)CC4)c3Cl)nn12 [Example 277, 2-((2-chloro-5-(difluoromethyl)-3-(4-(2-hydroxy-1-(hydroxymethyl)ethyl)-1-piperidinyl)phenyl)amino)-4-(cyclopropylamino)imidazo[2,1-f][1,2,4]triazine-7-carbonitrile]
3 | 0.65 | N#Cc1cc(Nc2nc(NC3CC3)c3ncc(C#N)n3n2)c(Cl)c(C2CCN(CC(O)CF)CC2)c1 (racemic) [Example 380, (+/−)-2-((2-chloro-5-cyano-3-(1-(3-fluoro-2-hydroxypropyl)-4-piperidinyl)phenyl)amino)-4-(cyclopropylamino)imidazo[2,1-f][1,2,4]triazine-7-carbonitrile]
4 | 4.73 | CCC(C)(O)CC(=O)N1CC(N2CCN(c3cc(C#N)cc(Nc4nc(NC5CC5)c5ncc(C#N)n5n4)c3Cl)CC2)C1 (centres unmarked) [Example 508, 2-[(2-chloro-5-cyano-3-{4-[1-(3-hydroxy-3-methylpentanoyl)azetidin-3-yl]piperazin-1-yl}phenyl)amino]-4-(cyclopropylamino)imidazo[2,1-f][1,2,4]triazine-7-carbonitrile]
5 | 1.39 | N#Cc1cc(Nc2nc(NC3CC3)c3ncc(C#N)n3n2)c(Cl)c(C2CCCC(N3CCOCC3)C2)c1 (racemic) [Example 725, (+/−) cis and trans-2-((2-chloro-5-cyano-3-(3-morpholinocyclohexyl)phenyl)amino)-4-(cyclopropylamino)imidazo[2,1-f][1,2,4]triazine-7-carbonitrile]
6 | 0.77 | N#Cc1cc(Nc2nc(NC3CC3)c3ncc(C#N)n3n2)c(Cl)c(N2CCC3NCCC3C2)c1 (racemic) [Example 442, 2-((2-chloro-5-cyano-3-(hexahydro-1H-pyrrolo[3,2-c]pyridin-5(6H)-yl)phenyl)amino)-4-(cyclopropylamino)imidazo[2,1-f][1,2,4]triazine-7-carbonitrile]
7 | 1.52 | COCCC(=O)N1CC(N2CCN(c3cc(C#N)cc(Nc4nc(NC5CC5)c5ncc(C#N)n5n4)c3Cl)CC2)C1 [Example 482, 2-[(2-chloro-5-cyano-3-{4-[1-(3-methoxypropanoyl)azetidin-3-yl]piperazin-1-yl}phenyl)amino]-4-(cyclopropylamino)imidazo[2,1-f][1,2,4]triazine-7-carbonitrile]
8 | 1.35 | N#Cc1cc(Nc2nc(NC3CC3)c3ncc(C#N)n3n2)c(Cl)c(N2CCN(C3CC3)CC2)c1 [Example 593, 2-{[2-chloro-5-cyano-3-(4-cyclopropylpiperazin-1-yl)phenyl]amino}-4-(cyclopropylamino)imidazo [2,1-f][1,2,4]triazine-7-carbonitrile]
9 | 2.14 | N#Cc1cc(Nc2nc(NC3CC3)c3ncc(C#N)n3n2)c(Cl)c(N2CCC3(CC2)CN(CC(N)=O)C3)c1 [Example 800, 2-(7-(2-chloro-5-cyano-3-((7-cyano-4-(cyclopropylamino)imidazo[2,1-f][1,2,4]triazin-2-yl)amino)phenyl)-2,7-diazaspiro[3.5]nonan-2-yl)acetamide]
10 | 2 | CC[C@H]1CN(c2cc(C#N)cc(Nc3nc(NC4CC4)c4ncc(C#N)n4n3)c2Cl)C[C@H]1NC(=O)OC (racemic) [Example 292, (+/−) methyl ((3S,4S)-1-(2-chloro-5-cyano-3-((7-cyano-4-(cyclopropylamino)imidazo[2,1-f][1,2,4]triazin-2-yl)amino)phenyl)-4-ethyl-3-pyrrolidinyl)carbamate]
11 | 0.92 | CCNc1nc(Nc2cc(C#N)cc(N3CC[C@@H]4[C@@H](C3)OC(=O)N4C3CCOCC3)c2Cl)nn2c(C#N)cnc12 [Example 845]
12 | 7.56 | N#Cc1cc(Nc2nc(NC3CC3)c3ncc(C#N)n3n2)c(Cl)c(N2CCN([C@H]3CCC[C@@H]3O)CC2)c1 [Example 589, 2-[(2-chloro-5-cyano-3-{4-[(1S,2S)-2-hydroxycyclopentyl]piperazin-1-yl}phenyl)amino]-4-(cyclopropylamino)imidazo [2,1-f][1,2,4]triazine-7-carbonitrile]
13 | 0.44 | CN1C[C@H]2C[C@@H]1CN2c1cc(C#N)cc(Nc2nc(NC3CC3)c3ncc(C#N)n3n2)c1Cl [Example 5, 2-((2-chloro-5-cyano-3-((1R,4R)-5-methyl-2,5-diazabicyclo[2.2.1]hept-2-yl)phenyl)amino)-4-(cyclopropylamino)imidazo [2,1-f][1,2,4]triazine-7-carbonitrile]
14 | 0.34 | N#Cc1cc(NCCCO)c(Cl)c(Nc2nc(NC3CC3)c3ncc(C#N)n3n2)c1 [Example 617, 2-((2-chloro-5-cyano-3-((3-hydroxypropyl)amino)phenyl)amino)-4-(cyclopropylamino)imidazo[2,1-f][1,2,4]triazine-7-carbonitrile]
15 | 2.73 | CCNc1nc(Nc2cc(C#N)cc(C3CCN(CCOC)CC3)c2Cl)nn2c(C#N)cnc12 [Example 352, 2-((2-chloro-5-cyano-3-(1-(2-methoxyethyl)-4-piperidinyl)phenyl)amino)-4-(ethylamino)imidazo[2,1-f] [1,2,4]triazine-7-carbonitrile]
16 | 2.9 | COC(=O)N1CCC2CN(c3cc(C#N)cc(Nc4nc(NC5CC5)c5ncc(C#N)n5n4)c3Cl)CCC21 (centres unmarked) [Example 445, methyl 5-(2-chloro-5-cyano-3-((7-cyano-4-(cyclopropylamino)imidazo[2,1-f][1,2,4]triazin-2-yl)amino)phenyl)octahydro-1H-pyrrolo[3,2-c]pyridine-1-carboxylate]
17 | 0.76 | COCCC(=O)N1CCN(c2cc(C#N)cc(Nc3nc(NC4CC4)c4ncc(C#N)n4n3)c2Cl)CC1 [Example 87, 2-((2-chloro-5-cyano-3-(4-(3-methoxypropanoyl)-1-piperazinyl)phenyl)amino)-4-(cyclopropylamino) imidazo[2,1-f][1,2,4] triazine-7-carbonitrile]
18 | 1.84 | N#Cc1cc(Nc2nc(NC3CC3)c3ncc(C#N)n3n2)c(Cl)c(C2(O)COC2)c1 [Example 653, 2-((2-chloro-5-cyano-3-(3-hydroxyoxetan-3-yl)phenyl)amino)-4-(cyclopropylamino)imidazo[2,1-f][1,2,4]triazine-7-carbonitrile]
19 | 1.05 | N#Cc1cc(Nc2nc(NC3CC3)c3ncc(C#N)n3n2)c(Cl)c(N2CCC(N[C@@H]3CC[C@H](O)C3)CC2)c1 (racemic) [Example 121, (+/−) 2-((2-chloro-5-cyano-3-(4-(((1R,3S)-3-hydroxycyclopentyl)amino)-1-piperidinyl)phenyl)amino)-4-(cyclopropylamino)imidazo [2,1-f][1,2,4]triazine-7-carbonitrile]
20 | 0.97 | CN1CC2CC1CN2c1cc(C#N)cc(Nc2nc(NCC(F)(F)F)c3ncc(C#N)n3n2)c1Cl (racemic) [Example 430, (+/−)-2-((2-chloro-5-cyano-3-((1R,4R)-5-methyl-2,5-diazabicyclo[2.2.1]heptan-2-yl)phenyl)amino)-4-((2,2,2-trifluoroethyl)amino)imidazo[2,1-f][1,2,4]triazine-7-carbonitrile]
